Among the test systems are Amaranthus mangostanus; Sorghum halepense; Solanum nigrum; Astragalus sinicus; Abutilon theophrosti; Corn; Zea mays; Setaria viridis.
Test in all cases: Herbicidal activity, foliar application of single compounds (Test Examples 1 to 5)
Holding throughout (assay type): in vivo
Set-up in all cases: key: 0 means the state where the plants are as sound as before the application of the active compound; 1, 2, 3 and 4 mean varying degrees of the enfeebled state of the plants between 0 and 5; 1, 2, 3 and 4 mean varying degrees of the enfeebled state of the plants between 0 and 5; 1, 2, 3 and 4 mean varying degrees of the enfeebled state of the plants between 0 and 5; 1, 2, 3 and 4 mean varying degrees of the enfeebled state of the plants between 0 and 5; 5 is the state where the plants are withered or killed by application of the active compound
Conditions in all cases: 3 weeks after application

Test [1] deals with Chenopodium album var. centrorubrum.
[2] abbreviates: Rate of Application 0.016 kg/ha.
The mark [3] stands for this setting: Rate of Application 0.031 kg/ha.

On to `COC(=O)C(C)Oc1cc(Oc2ccc(C(F)(F)F)cc2Cl)ccc1C#N` (stereo not drawn) [Compound (1), Methyl α-[2-cyano-5-(2-chloro-4-trifluoromethylphenoxy)phenoxy]propionate], for which the “herbicidal activity, Plants e” value in the test on Amaranthus mangostanus (setting [2]) and in the test on Amaranthus mangostanus (setting [3]) was 5 in each case. Moreover, the “herbicidal activity, Plants d” value in test [1] (setting [2]) and in test [1] (setting [3]) was 5 in each case. For the same molecule, the “herbicidal activity, Plants c” value with Sorghum halepense (setting [2]) and in the test with Sorghum halepense (setting [3]) was 5 in each case. Also, the “herbicidal activity, Plants h” value in the test with Solanum nigrum (setting [2]) and in the test on Solanum nigrum (setting [3]) was 5 each time. For the same molecule, the “herbicidal activity, Plants f” value with Astragalus sinicus (setting [2]) and with Astragalus sinicus (setting [3]) was 5 throughout. Moreover, the “herbicidal activity, Plants g” value with Abutilon theophrosti (setting [2]) and in the test with Abutilon theophrosti (setting [3]) was 5 in each case. Besides, the “herbicidal activity, Plants k” value in the test on Corn; Zea mays (setting [2]) and in the test on Corn; Zea mays (setting [3]) was 5 in each case. Further, the “herbicidal activity, Plants b” value in the test on Setaria viridis (setting [2]) was 3; in the test with Setaria viridis (setting [3]), 4.

(Values after patent publication EP0533925A1, “OPTICAL ISOMER OF R-FORM OF DIPHENYL ETHER DERIVATIVE AND HERBICIDE CONTAINING THE SAME AS ACTIVE INGREDIENT” (TEIJIN LIMITED, priority 1990, dated 1991).)
